Source: the kinase profiling compilation of Christmann-Franck et al. (2016)

Assays:
Assay in all cases: radiometric filter-binding kinase assay
MAPKAPK2 (human) = MAPKAPK2 (human) (UniProt P49137)
TBK1 (human) = TBK1 (human) (UniProt Q9UHD2)
[1] = test system: PAK2 (human), Q13177 [T402E]
INSRR (human) = INSRR (human) (UniProt P14616)
GCK (human) = GCK (human) (UniProt Q12851)
PAK6 (human) = PAK6 (human) (UniProt Q9NQU5)
CSNK2A1 (human) = CSNK2A1 (human) (UniProt P68400)
MYLK (human) = MYLK (human) (UniProt Q15746)
MAP2K1 (human) = MAP2K1 (human) (UniProt Q02750)
EPHB4 (human) = EPHB4 (human) (UniProt P54760)
STK3 (human) = STK3 (human) (UniProt Q13188)
SRPK1 (human) = SRPK1 (human) (UniProt Q96SB4)
MAP3K9 (human) = MAP3K9 (human) (UniProt P80192)
MARK3 (human) = MARK3 (human) (UniProt P27448)
MAP2K2 (human) = MAP2K2 (human) (UniProt P36507)
PIM3 (human) = PIM3 (human) (UniProt Q86V86)
IKBKB (human) = IKBKB (human) (UniProt O14920)
EPHB1 (human) = EPHB1 (human) (UniProt P54762)
MKNK2 (human) = MKNK2 (human) (UniProt Q9HBH9)
[2] = test system: RPS6KB1 (human), P23443 [T412E]
PIM1 (human) = PIM1 (human) (UniProt P11309)
DAPK1 (human) = DAPK1 (human) (UniProt P53355)
RPS6KA5 KD1 KD2 (human) = RPS6KA5 KD1 KD2 (human) (UniProt O75582)
MAPK9 (human) = MAPK9 (human) (UniProt P45984)
EEF2K (human) = EEF2K (human) (UniProt O00418)
NEK6 (human) = NEK6 (human) (UniProt Q9HC98)
PIM2 (human) = PIM2 (human) (UniProt Q9P1W9)
MAP3K5 (human) = MAP3K5 (human) (UniProt Q99683)
EPHA4 (human) = EPHA4 (human) (UniProt P54764)
MARK4 (human) = MARK4 (human) (UniProt Q96L34)
YES1 (human) = YES1 (human) (UniProt P07947)
TTK (human) = TTK (human) (UniProt P33981); conditions: compound 1.0 µM
BTK (human) = BTK (human) (UniProt Q06187)
CDK2 CCNA2 (human) = CDK2 CCNA2 (human) (UniProt P20248+P24941)
PKN2 (human) = PKN2 (human) (UniProt Q16513)
CHEK1 (human) = CHEK1 (human) (UniProt O14757)
CHEK1 (human), sequence (O14757 whole entry, looked up): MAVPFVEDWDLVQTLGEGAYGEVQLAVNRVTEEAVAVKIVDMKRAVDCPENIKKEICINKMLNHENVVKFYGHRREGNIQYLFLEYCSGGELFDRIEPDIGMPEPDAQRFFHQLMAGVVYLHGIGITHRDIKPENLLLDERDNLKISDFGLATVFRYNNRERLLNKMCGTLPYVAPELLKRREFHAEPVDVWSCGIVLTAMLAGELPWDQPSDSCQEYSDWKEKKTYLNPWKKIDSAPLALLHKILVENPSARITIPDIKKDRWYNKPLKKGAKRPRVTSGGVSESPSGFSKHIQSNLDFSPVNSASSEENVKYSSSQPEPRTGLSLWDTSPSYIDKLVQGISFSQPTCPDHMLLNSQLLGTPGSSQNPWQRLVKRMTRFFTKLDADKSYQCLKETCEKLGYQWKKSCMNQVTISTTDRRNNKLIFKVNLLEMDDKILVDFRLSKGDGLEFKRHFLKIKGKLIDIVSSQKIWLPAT

NEK6 (human), sequence (Q9HC98 whole entry, looked up): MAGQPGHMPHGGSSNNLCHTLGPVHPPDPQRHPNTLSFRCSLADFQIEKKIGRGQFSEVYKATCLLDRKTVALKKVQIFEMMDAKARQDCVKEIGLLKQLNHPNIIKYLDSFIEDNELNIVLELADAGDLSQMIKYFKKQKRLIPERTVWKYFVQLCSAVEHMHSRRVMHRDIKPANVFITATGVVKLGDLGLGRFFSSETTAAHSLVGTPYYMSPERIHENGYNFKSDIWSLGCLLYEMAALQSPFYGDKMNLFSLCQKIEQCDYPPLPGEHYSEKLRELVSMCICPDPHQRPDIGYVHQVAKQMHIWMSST
EPHB4 (human), sequence (P54760 whole entry, looked up): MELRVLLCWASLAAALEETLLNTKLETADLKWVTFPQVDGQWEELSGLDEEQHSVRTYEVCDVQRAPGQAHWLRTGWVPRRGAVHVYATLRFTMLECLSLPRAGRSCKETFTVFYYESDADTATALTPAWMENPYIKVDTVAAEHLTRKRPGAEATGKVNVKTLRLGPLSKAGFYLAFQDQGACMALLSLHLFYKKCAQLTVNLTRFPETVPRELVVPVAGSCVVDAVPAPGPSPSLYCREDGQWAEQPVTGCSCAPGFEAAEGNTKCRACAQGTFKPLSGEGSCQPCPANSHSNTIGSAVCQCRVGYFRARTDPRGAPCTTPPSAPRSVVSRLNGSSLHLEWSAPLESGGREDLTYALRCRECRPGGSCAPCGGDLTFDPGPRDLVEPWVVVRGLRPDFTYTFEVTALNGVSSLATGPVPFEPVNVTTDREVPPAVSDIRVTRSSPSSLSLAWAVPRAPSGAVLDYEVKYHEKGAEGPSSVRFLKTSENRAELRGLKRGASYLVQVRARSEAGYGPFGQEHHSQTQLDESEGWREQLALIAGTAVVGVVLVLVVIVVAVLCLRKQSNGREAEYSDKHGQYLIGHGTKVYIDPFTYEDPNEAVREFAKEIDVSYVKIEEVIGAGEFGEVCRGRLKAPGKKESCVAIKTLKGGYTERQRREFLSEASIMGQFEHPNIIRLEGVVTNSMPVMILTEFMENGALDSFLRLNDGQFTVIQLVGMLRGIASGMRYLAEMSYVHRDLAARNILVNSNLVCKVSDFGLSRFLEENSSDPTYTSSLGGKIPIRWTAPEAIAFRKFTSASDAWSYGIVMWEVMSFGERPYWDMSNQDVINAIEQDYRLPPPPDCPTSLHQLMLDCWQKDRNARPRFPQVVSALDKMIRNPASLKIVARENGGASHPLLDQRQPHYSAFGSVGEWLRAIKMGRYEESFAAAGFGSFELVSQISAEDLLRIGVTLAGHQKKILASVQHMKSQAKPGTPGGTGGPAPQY
MKNK2 (human), sequence (Q9HBH9 whole entry, looked up): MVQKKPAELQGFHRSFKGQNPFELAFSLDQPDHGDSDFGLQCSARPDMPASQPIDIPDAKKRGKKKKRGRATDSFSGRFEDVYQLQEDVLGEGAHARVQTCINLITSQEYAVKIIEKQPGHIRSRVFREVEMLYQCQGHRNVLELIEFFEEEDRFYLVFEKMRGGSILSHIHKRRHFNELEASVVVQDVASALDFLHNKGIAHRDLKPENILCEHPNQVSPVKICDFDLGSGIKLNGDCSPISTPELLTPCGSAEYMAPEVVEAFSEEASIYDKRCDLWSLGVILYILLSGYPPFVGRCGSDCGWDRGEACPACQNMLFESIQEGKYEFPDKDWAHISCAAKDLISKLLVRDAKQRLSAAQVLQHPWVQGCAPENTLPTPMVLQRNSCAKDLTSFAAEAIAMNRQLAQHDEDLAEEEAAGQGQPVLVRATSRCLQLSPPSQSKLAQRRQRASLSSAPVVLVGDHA
YES1 (human), sequence (P07947 whole entry, looked up): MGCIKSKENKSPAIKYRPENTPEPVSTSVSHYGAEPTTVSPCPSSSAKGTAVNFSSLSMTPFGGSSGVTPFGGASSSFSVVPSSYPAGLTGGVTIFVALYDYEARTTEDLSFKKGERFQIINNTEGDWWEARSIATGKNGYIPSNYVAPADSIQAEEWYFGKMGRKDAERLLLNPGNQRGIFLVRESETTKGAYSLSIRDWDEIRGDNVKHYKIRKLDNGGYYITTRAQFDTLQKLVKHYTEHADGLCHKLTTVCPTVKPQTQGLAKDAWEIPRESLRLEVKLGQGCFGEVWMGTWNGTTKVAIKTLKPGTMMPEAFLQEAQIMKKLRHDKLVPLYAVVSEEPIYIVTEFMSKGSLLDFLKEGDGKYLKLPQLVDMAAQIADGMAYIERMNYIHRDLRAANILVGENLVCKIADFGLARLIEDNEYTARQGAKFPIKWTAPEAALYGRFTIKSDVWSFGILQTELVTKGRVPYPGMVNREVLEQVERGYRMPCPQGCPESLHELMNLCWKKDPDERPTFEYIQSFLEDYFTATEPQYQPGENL
DAPK1 (human), sequence (P53355 whole entry, looked up): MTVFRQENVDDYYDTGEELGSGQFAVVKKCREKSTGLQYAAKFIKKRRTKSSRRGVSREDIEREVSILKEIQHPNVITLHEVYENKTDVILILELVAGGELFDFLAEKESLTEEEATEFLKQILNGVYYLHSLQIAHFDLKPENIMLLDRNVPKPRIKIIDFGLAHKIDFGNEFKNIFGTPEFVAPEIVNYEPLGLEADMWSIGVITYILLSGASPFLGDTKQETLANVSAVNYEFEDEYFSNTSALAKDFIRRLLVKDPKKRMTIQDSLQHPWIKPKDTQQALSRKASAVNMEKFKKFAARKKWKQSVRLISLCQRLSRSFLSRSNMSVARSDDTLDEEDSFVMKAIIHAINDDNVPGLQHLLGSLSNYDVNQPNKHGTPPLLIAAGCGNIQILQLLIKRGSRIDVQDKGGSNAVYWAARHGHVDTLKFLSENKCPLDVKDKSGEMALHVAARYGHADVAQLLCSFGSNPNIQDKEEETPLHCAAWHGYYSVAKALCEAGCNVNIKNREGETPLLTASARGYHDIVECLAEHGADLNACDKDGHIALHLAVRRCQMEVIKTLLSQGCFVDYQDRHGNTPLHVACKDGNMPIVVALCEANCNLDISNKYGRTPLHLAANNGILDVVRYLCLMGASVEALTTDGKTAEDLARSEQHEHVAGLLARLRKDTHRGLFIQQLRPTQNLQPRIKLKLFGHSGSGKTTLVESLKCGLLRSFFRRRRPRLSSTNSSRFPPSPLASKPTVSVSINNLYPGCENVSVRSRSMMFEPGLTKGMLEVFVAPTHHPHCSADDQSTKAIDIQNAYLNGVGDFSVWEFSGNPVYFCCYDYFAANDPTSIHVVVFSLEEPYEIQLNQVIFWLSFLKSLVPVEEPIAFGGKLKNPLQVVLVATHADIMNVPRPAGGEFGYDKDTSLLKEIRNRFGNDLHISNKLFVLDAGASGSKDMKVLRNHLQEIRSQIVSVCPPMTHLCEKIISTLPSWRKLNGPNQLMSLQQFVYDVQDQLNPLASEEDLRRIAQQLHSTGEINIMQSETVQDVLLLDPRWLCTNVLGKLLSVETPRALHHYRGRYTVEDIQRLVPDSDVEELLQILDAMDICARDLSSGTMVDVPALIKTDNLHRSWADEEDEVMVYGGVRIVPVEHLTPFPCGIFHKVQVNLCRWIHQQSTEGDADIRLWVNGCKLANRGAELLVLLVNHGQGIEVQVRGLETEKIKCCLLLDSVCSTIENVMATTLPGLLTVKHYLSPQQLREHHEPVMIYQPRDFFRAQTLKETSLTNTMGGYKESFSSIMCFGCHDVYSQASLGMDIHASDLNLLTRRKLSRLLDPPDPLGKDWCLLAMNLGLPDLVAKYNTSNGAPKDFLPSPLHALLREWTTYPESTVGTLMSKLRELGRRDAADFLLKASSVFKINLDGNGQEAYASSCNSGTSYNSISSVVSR
CSNK2A1 (human), sequence (P68400 whole entry, looked up): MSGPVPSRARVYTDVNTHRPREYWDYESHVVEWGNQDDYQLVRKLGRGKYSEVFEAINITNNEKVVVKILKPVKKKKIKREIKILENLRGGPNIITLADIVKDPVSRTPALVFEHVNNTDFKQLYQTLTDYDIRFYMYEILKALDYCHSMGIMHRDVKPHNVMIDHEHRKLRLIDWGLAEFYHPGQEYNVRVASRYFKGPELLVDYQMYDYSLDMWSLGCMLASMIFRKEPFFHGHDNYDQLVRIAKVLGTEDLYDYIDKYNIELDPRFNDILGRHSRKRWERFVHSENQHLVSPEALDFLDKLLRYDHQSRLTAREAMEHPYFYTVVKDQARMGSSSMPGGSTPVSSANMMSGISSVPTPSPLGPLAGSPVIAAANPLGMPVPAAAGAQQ

COc1cc2ncn(-c3cc(OCc4ccccc4S(C)(=O)=O)c(C#N)s3)c2cc1OC
residual activity (MAPKAPK2 (human); compound 1.0 µM): 99% | residual activity (MAPKAPK2 (human); compound 10.0 µM): 85% | residual activity (TBK1 (human); compound 1.0 µM): 21% | residual activity (TBK1 (human); compound 10.0 µM): 17% | residual activity ([1]; compound 1.0 µM): 94% | residual activity ([1]; compound 10.0 µM): 111% | residual activity (INSRR (human); compound 1.0 µM): 77% | residual activity (INSRR (human); compound 10.0 µM): 66% | residual activity (GCK (human); compound 1.0 µM): 24% | residual activity (GCK (human); compound 10.0 µM): 8% | residual activity (PAK6 (human); compound 1.0 µM): 95% | residual activity (PAK6 (human); compound 10.0 µM): 67% | residual activity (CSNK2A1 (human); compound 1.0 µM): 118% | residual activity (CSNK2A1 (human); compound 10.0 µM): 107% | residual activity (MYLK (human); compound 1.0 µM): 89% | residual activity (MYLK (human); compound 10.0 µM): 61% | residual activity (MAP2K1 (human); compound 1.0 µM): 78% | residual activity (MAP2K1 (human); compound 10.0 µM): 75% | residual activity (EPHB4 (human); compound 1.0 µM): 94% | residual activity (EPHB4 (human); compound 10.0 µM): 82% | residual activity (STK3 (human); compound 1.0 µM): 19% | residual activity (STK3 (human); compound 10.0 µM): 7% | residual activity (SRPK1 (human); compound 1.0 µM): 93% | residual activity (SRPK1 (human); compound 10.0 µM): 79% | residual activity (MAP3K9 (human); compound 1.0 µM): 28% | residual activity (MAP3K9 (human); compound 10.0 µM): 8% | residual activity (MARK3 (human); compound 1.0 µM): 31% | residual activity (MARK3 (human); compound 10.0 µM): 41% | residual activity (MAP2K2 (human); compound 1.0 µM): 75% | residual activity (MAP2K2 (human); compound 10.0 µM): 57% | residual activity (PIM3 (human); compound 1.0 µM): 90% | residual activity (PIM3 (human); compound 10.0 µM): 73% | residual activity (IKBKB (human); compound 1.0 µM): 103% | residual activity (IKBKB (human); compound 10.0 µM): 78% | residual activity (EPHB1 (human); compound 1.0 µM): 79% | residual activity (EPHB1 (human); compound 10.0 µM): 95% | residual activity (MKNK2 (human); compound 1.0 µM): 47% | residual activity (MKNK2 (human); compound 10.0 µM): 35% | residual activity ([2]; compound 1.0 µM): 87% | residual activity ([2]; compound 10.0 µM): 66% | residual activity (PIM1 (human); compound 1.0 µM): 94% | residual activity (PIM1 (human); compound 10.0 µM): 71% | residual activity (DAPK1 (human); compound 1.0 µM): 54% | residual activity (DAPK1 (human); compound 10.0 µM): 51% | residual activity (RPS6KA5 KD1 KD2 (human); compound 1.0 µM): 78% | residual activity (RPS6KA5 KD1 KD2 (human); compound 10.0 µM): 58% | residual activity (MAPK9 (human); compound 1.0 µM): 95% | residual activity (MAPK9 (human); compound 10.0 µM): 90% | residual activity (EEF2K (human); compound 1.0 µM): 105% | residual activity (EEF2K (human); compound 10.0 µM): 98% | residual activity (NEK6 (human); compound 1.0 µM): 93% | residual activity (NEK6 (human); compound 10.0 µM): 77% | residual activity (PIM2 (human); compound 1.0 µM): 93% | residual activity (PIM2 (human); compound 10.0 µM): 78% | residual activity (MAP3K5 (human); compound 1.0 µM): 83% | residual activity (MAP3K5 (human); compound 10.0 µM): 69% | residual activity (EPHA4 (human); compound 1.0 µM): 57% | residual activity (EPHA4 (human); compound 10.0 µM): 45% | residual activity (MARK4 (human); compound 1.0 µM): 57% | residual activity (MARK4 (human); compound 10.0 µM): 42% | residual activity (YES1 (human); compound 1.0 µM): 43% | residual activity (YES1 (human); compound 10.0 µM): 58% | residual activity (TTK (human)): 83% | residual activity (BTK (human); compound 1.0 µM): 63% | residual activity (BTK (human); compound 10.0 µM): 45% | residual activity (CDK2 CCNA2 (human); compound 1.0 µM): 100% | residual activity (CDK2 CCNA2 (human); compound 10.0 µM): 99% | residual activity (PKN2 (human); compound 1.0 µM): 63% | residual activity (PKN2 (human); compound 10.0 µM): 64% | residual activity (CHEK1 (human); compound 1.0 µM): 79% | residual activity (CHEK1 (human); compound 10.0 µM): 64%
